# Reference: US11098021B2, “Phenylsulfonamido-benzofuran derivatives and uses thereof in the treatment of proliferative diseases” (Memorial Sloan-Kettering Cancer Center, priority 2015, dated 2021)
# Tests used:
# Format in all cases: cell-based
# [1] = tested on: MCL-1-addicted cancer cell-line, H23; experiment: apoptosis induction in MCL-1-addicted cancer cell line H23; conditions: H23 cells
# [2] = tested on: DMS53, SW1417, and H82 cell lines; experiment: selective apoptotic induction in cell lines addicted to BCL-2, BCL-XL or MCL-1; conditions: MCL-1 addicted cancer cell line (H82) over BCL-2 (DMS53) or BCL-XL (SW1417) addicted cancer cell lines; FIG. 2B
# [3] = tested on: MCL-1-addicted cancer cell-line, H82; experiment: apoptosis induction in MCL-1-addicted cancer cell line H82; conditions: H82 cells
# [4] = 1 µM of compound, FIG. 1B legend
compound,measurement,setting,value
CCOC(=O)c1c(C)oc2cc(Br)c(NS(=O)(=O)c3ccc(OC)cc3)cc12 [Compound 1],apoptosis induction,"[1]; 1 μM of compound, FIG. 1B",robust apoptosis
same,apoptosis induction,[1]; [4],robust apoptosis
same,selectivity of apoptosis induction,[2],selectively induce apoptosis
same,apoptosis induction,"[3]; 1 μM of compound, FIG. 1B",robust apoptosis
same,apoptosis induction,[3]; [4],robust apoptosis
